Laboratory results taken from patent US8916526B2, “Flavanone derivative” (National University Corporation Okayama University, priority 2009, dated 2014).
Converted amounts (≈) assume the structure as drawn. Where two headings read alike, the source gives them in different places.

Tests used:
[1] = biological target: T1, Staphylococcus aureus Topoisomerase IV (Staphylococcus aureus, UniProt P0C1S7+P0C1U9); assay: Topoisomerase IV inhibition (decatenation kit), Exp. Ex. 2-3; assay type: biochemical
T1 construct: purchased John Innes Enterprises
Procedure: (§1) Staphylococcus aureus Topoisomerase IV and Escherichia coli Topoisomerase IV were purchased from John Innes Enterprises. 1 unit of topoisomerase IV was cultured with 200 ng of kinetoplast DNA (kDNA) in 30 L of a reaction solution at 37° C. for 30 minutes under the conditions of 50 mM Tris-HCl (pH 7.5) (S. aureus)/50 mM HEPES-KOH (pH 7.6) (E. coli), 5 mM MgCl2 (S. aureus)/5 mM magnesium acetate (E. coli), 350 mM potassium glutamate (S. aureus)/100 mM potassium glutamate (E. coli), 5 mM dithiotheri (S. aureus)/10 mM dithiotheri (E. coli), 1.5 mM ATP (S. aureus)/1 mM ATP (E. coli), and 40% (w/v) glycerol. The reactions were stopped by adding 8 L of a reaction stop solution (40% sucrose, 100 mM Tris.HCl (pH 7.5), 1 mM EDTA, 0.5 mg/ml bromophenol blue). Agarose gel (1.0%) was poured into TAE (40 mM Tris acetate, 2 mM EDTA).

[2] = biological target: T2, Escherichia coli Topoisomerase IV (Escherichia coli, UniProt P0AFI2+P20083); assay: as above; assay type: biochemical; details: decatenation of kDNA, 37° C., 30 minutes; read-out: IC50 (E. coli topoisomerase IV inhibitions)
T2 construct: purchased John Innes Enterprises
Procedure: as §1

[3] = system: Streptococcus pneumoniae R6; assay: In vitro infectivity assay (MIC), Exp. Ex. 2-1; assay type: cell-based; details: Gram-positive, microdilution, MIC after 24 h
Escherichia coli K-12 = assay: Antibacterial activity (MIC) against Gram-negative strains, microdilution; assay type: cell-based; details: for MIC (Gram-nagative) K-12: MIC after 24 h
Procedure: (§2) The antibacterial activities were measured based on broth dilution techniques of international standards (Clinical Laboratory Standards Institute: CLSI). The activities were shown by minimum inhibitory concentrations (MICs) determined by inoculating the above-mentioned strains at a concentration of about 10^5 […] into Mueller-Hinton broth (manufactured by Difco) containing 0.85% NaCl in 96-well microplates and incubating the plates at 35° C. for 24 hours. Measurement was carried out three times.

[4] = system: Pseodomonas aeruginosa PAOI; assay: as above; assay type: cell-based; details: MIC after 24 h
Procedure: as §2

E. coli DNA gyrase = biological target: T3, E. coli DNA gyrase (Escherichia coli, UniProt P0AES4+P0AES6); assay: DNA gyrase inhibition (supercoiling kit), Exp. Ex. 2-2; assay type: biochemical
T3 construct: purchased John Innes Enterprises #K0001
Procedure: As a kit for measurement of DNA gyrase of Escherichia coli, a product purchased from John Innes Enterprises (Gyrase Supercoiling assay kit #K0001) was used. Relaxed DNA was modified with gyrase into supercoiled DNA, and reaction products were separated by electrophoresis depending on the sizes of the molecular weights to examine anti-gyrase effects (IC50). 1 unit (1 U) of DNA gyrase and […] of relaxed pBR322 DNA were added to […] of the reaction solution, and the mixture was allowed to react at 37° C. for 30 minutes in the presence of 35 mM Tris-HCl (pH 7.5), 24 mM KCl, 4 mM MgCl2, 2 mM DTT, 1.8 mM spermidine, 1 mM ATP, 6.5% (w/v) glycerol, and 0.1 mg/ml BSA. The reactions were stopped using […] of a reaction stop solution (40% sucrose, 100 mM Tris-HCl (pH 7.5), 1 mM EDTA, 0.5 mg/ml bromophenol blue).

[5] = system: Vancomycin intermediate-resistant Staphylococcus aureus Mu50; assay: In vitro infectivity assay (MIC), Exp. Ex. 2-1; assay type: cell-based; details: Gram-positive, microdilution, MIC after 24 h
Procedure: as §2
(§3) The antibacterial activities of the compounds of the present invention against various strains such as vancomycin-resistant enterococci (VRE), vancomycin intermediate-resistant Staphylococcus aureus (VISA), methicillin-resistant Staphylococcus aureus (MRSA), and methicillin-sensitive Staphylococcus aureus (MSSA) were examined. Of the bacteria used in MIC measurement in this test example, clinical bacteria of MRSA (OM481 strain and OM584 strain) were supplied from Okayama University Hospital (Japan). An MRSA strain N315, a vancomycin intermediate-resistant Staphylococcus aureus (VISA) strain Mu50, and a methicillin-sensitive Staphylococcus aureus (MSSA) strain FDA 209P were used as controls. Vancomycin-resistant enterococcus (VRE) strains NCTC 12201 and FN-1 were supplied from the National Institute of Infectious Disease (Japan).

[6] = system: Vancomycin-resistant enterococci FN-1; assay: In vitro infectivity assay (MIC), Exp. Ex. 2-1; assay type: cell-based; details: Gram-positive, microdilution, MIC after 24 h
Procedure: as §2, §3

[7] = system: Vancomycin-resistant enterococci NCTC 12201; assay: In vitro infectivity assay (MIC), Exp. Ex. 2-1; assay type: cell-based; details: Gram-positive, microdilution, MIC after 24 h
Procedure: as §2, §3

[8] = system: Methicillin-resistant S. aureus N315; assay: In vitro infectivity assay (MIC), Exp. Ex. 2-1; assay type: cell-based, Staphylococcus aureus; details: Gram-positive, microdilution, MIC after 24 h
Procedure: as §2, §3

[9] = system: Methicillin-resistant S. aureus COL; assay: In vitro infectivity assay (MIC), Exp. Ex. 2-1; assay type: cell-based, Staphylococcus aureus; details: Gram-positive, microdilution, MIC after 24 h
Procedure: as §2, §3

[10] = system: Methicillin-resistant S. aureus OM584; assay: In vitro infectivity assay (MIC), Exp. Ex. 2-1; assay type: cell-based, Staphylococcus aureus; details: Gram-positive, microdilution, MIC after 24 h
Procedure: as §2, §3

[11] = system: Methicillin-resistant S. aureus OM481; assay: In vitro infectivity assay (MIC), Exp. Ex. 2-1; assay type: cell-based, Staphylococcus aureus; details: Gram-positive, microdilution, MIC after 24 h
Procedure: as §2, §3

[12] = system: Methicillin sensitive S. aureus 209P; assay: In vitro infectivity assay (MIC), Exp. Ex. 2-1; assay type: cell-based, Staphylococcus aureus; details: Gram-positive, microdilution, MIC after 24 h
Procedure: as §2, §3

[13] = decatenation of kDNA, 37° C., 30 minutes, read-out: IC50 (S. aureus topoisomerase IV inhibitions)
[14] = supercoiling activity, 37° C., 30 minutes, read-out: IC50 (E. coli DNA gyrase inhibitions)

T1 sequence (P0C1U9 whole entry): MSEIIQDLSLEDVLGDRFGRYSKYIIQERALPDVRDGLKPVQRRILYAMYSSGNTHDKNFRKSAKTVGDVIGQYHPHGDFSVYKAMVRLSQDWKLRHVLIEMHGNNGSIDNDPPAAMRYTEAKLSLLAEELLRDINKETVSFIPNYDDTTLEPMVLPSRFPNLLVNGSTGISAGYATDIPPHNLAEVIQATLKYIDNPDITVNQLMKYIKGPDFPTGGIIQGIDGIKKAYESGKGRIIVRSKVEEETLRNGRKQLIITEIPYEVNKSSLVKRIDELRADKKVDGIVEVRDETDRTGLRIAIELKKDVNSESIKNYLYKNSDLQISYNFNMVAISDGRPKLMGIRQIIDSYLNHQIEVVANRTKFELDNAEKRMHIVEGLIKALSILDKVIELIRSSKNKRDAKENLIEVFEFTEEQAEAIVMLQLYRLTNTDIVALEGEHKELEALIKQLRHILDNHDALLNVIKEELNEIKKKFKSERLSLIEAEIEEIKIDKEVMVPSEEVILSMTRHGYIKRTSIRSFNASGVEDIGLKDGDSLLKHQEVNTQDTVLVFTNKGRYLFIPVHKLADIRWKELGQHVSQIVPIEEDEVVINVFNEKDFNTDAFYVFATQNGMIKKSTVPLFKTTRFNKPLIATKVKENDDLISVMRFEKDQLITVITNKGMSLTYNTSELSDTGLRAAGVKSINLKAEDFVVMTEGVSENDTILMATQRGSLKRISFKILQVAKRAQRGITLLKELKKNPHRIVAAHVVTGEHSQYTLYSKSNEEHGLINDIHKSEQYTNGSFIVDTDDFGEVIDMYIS
T1 sequence (P0C1S7 whole entry): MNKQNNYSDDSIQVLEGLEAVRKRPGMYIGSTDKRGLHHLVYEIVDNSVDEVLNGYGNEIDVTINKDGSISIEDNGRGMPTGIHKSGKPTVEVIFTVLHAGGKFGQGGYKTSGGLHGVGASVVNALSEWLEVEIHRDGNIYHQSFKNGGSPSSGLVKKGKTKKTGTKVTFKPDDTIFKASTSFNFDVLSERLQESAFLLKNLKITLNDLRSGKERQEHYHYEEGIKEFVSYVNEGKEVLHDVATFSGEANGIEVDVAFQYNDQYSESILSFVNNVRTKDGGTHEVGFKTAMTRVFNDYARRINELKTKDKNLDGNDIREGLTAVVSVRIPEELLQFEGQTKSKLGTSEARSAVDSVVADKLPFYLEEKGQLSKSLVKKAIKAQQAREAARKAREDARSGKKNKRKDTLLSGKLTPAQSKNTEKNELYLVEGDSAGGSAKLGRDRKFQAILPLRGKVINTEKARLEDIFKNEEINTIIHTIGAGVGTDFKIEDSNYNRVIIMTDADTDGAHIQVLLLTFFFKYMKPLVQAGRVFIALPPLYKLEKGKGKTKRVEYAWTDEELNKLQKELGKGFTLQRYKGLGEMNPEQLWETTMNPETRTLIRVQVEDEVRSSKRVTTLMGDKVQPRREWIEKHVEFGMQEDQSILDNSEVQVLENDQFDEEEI
T3 sequence (P0AES4 whole entry, one chain of several): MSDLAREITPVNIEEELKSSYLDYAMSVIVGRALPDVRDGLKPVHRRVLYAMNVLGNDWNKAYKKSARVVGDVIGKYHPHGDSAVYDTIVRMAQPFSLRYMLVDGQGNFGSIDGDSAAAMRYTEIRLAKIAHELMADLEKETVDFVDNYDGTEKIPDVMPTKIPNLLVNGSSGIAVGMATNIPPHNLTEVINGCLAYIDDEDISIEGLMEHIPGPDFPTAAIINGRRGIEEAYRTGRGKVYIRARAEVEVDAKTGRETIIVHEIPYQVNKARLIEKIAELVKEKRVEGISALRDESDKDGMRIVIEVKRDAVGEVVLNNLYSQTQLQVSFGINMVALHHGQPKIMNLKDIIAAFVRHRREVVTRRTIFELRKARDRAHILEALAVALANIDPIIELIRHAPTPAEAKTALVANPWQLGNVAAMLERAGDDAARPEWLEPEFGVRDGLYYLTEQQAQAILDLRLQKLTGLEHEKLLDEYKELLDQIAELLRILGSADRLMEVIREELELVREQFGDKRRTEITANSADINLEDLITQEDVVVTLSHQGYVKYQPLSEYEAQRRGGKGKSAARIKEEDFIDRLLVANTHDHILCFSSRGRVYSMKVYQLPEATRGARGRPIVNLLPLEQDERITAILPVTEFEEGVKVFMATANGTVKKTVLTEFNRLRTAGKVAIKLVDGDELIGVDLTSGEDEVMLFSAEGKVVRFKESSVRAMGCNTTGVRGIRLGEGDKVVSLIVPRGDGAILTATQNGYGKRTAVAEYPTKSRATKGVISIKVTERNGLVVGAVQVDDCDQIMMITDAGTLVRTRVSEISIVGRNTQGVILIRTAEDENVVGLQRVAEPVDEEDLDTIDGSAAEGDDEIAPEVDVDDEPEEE
T2 sequence (P20083 whole entry): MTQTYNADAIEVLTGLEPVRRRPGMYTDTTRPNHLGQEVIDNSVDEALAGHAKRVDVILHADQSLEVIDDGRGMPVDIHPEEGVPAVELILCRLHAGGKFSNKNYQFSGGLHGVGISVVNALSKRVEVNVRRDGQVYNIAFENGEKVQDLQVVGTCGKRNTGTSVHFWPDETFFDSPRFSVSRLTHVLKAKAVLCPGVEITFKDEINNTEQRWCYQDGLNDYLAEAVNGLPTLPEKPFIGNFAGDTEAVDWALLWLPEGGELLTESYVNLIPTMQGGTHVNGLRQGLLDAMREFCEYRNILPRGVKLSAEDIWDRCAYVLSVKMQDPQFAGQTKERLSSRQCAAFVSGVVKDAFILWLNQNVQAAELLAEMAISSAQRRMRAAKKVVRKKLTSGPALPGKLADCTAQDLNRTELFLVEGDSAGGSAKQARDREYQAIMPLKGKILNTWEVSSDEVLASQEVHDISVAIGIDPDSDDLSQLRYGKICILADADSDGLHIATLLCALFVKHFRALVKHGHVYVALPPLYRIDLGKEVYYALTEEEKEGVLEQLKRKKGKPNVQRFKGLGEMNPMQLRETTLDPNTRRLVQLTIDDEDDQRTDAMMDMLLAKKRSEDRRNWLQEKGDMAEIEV
T2 sequence (P0AFI2 whole entry): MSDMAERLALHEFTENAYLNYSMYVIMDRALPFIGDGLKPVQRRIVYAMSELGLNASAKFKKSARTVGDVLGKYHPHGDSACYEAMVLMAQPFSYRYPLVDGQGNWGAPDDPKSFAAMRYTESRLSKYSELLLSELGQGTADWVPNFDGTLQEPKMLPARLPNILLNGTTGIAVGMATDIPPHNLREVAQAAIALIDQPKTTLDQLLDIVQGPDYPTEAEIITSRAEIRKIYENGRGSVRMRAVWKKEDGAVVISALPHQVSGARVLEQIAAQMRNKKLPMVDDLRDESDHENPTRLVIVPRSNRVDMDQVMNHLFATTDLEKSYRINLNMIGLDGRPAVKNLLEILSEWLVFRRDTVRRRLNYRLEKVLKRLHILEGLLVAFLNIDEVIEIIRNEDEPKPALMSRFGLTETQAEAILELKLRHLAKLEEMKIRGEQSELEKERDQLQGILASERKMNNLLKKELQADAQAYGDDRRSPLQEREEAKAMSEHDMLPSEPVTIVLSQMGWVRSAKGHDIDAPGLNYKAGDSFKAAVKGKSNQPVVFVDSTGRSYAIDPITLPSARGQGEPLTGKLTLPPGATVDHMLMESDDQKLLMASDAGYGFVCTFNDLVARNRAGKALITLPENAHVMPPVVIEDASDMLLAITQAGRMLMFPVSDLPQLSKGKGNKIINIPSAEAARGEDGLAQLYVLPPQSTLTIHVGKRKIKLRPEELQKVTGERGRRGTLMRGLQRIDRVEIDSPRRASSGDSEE

SMILES: Cc1ccc(CCC(=O)OCC2OC(Oc3c(-c4ccc(O)c(O)c4)oc4cc(O)cc(O)c4c3=O)C(OC(=O)CCc3ccc(C)cc3)C(O)C2O)cc1 [Compound 14l, 2-(3′,4′-Dihydroxyphenyl)-5,7-dihydroxy-3-β-D-{2″,6″-di-O-[3′″-(4-methylphenylpropanoyl)]}galactosyl-4H-chromen-4-one]
- IC50 [1]: 2570 nM
- IC50 [2]: 7990 nM
- MIC ([3]; Streptococcus pneumoniae, R6, read-out: MIC S. Pneumoniae R6): 32 µg/mL (≈ 42.3 µM)
- MIC (Escherichia coli K-12; K12, MIC after 24 h, read-out: MIC (Gram-nagative) K-12): > 128 µg/mL
- MIC ([4]; read-out: MIC (Gram-nagative) PAO1): > 128 µg/mL
- IC50 (E. coli DNA gyrase): 1790 nM
- MIC ([5]; Staphylococcus aureus, VISA, read-out: MIC VISA Mu50): 16 µg/mL (≈ 21.1 µM)
- MIC ([6]; Enterococcus, VRE, read-out: MIC VRE FN-1): 32 µg/mL (≈ 42.3 µM)
- MIC ([7]; Enterococcus, NCTC 12201 / VRE, read-out: MIC VRE NCTC 12201): 32 µg/mL (≈ 42.3 µM)
- MIC ([8]; Staphylococcus aureus, MRSA, read-out: MIC MRSA N315): 16 µg/mL (≈ 21.1 µM)
- MIC ([9]; Staphylococcus aureus, MRSA): 32 µg/mL (≈ 42.3 µM)
- MIC ([10]; Staphylococcus aureus, MRSA, read-out: MIC MRSA OM584): 16 µg/mL (≈ 21.1 µM)
- MIC ([11]; Staphylococcus aureus, MRSA, read-out: MIC MRSA OM481): 16 µg/mL (≈ 21.1 µM)
- MIC ([12]; Staphylococcus aureus, 209P / MSSA, read-out: MIC MSSA 209P): 16 µg/mL (≈ 21.1 µM)

SMILES: O=C(Cc1ccc(F)cc1)OC[C@H]1O[C@@H](Oc2c(-c3ccc(O)c(O)c3)oc3cc(O)cc(O)c3c2=O)[C@H](OC(=O)Cc2ccc(F)cc2)[C@@H](O)[C@H]1O [Compound 14e, 2-(3′,4′-Dihydroxyphenyl)-5,7-dihydroxy-3-β-D-[2″,6″-di-O-(4-fluorophenylacetyl)]galactosyl-4H-chromen-4-one]
- IC50 [1, 13]: 460 nM
- IC50 [2]: 7210 nM
- MIC S. Pneumoniae R6 [3]: 0.5 µg/mL (≈ 0.679 µM)
- MIC (Gram-nagative) K-12 (Escherichia coli K-12): >128 µg/mL
- MIC (Gram-nagative) PAO1 [4]: >128 µg/mL
- IC50 (E. coli DNA gyrase; [14]): 1050 nM
- MIC VISA Mu50 [5]: 1 µg/mL (≈ 1.36 µM)
- MIC VRE FN-1 [6]: 0.5 µg/mL (≈ 0.679 µM)
- MIC VRE NCTC 12201 [7]: 0.5 µg/mL (≈ 0.679 µM)
- MIC MRSA N315 [8]: 1 µg/mL (≈ 1.36 µM)
- MIC MRSA COL [9]: 8 µg/mL (≈ 10.9 µM)
- MIC MRSA OM584 [10]: 1 µg/mL (≈ 1.36 µM)
- MIC MRSA OM481 [11]: 1 µg/mL (≈ 1.36 µM)
- MIC MSSA 209P [12]: 1 µg/mL (≈ 1.36 µM)

SMILES: O=C(CCCCc1ccc(F)cc1)OC[C@H]1O[C@@H](Oc2c(-c3ccc(O)c(O)c3)oc3cc(O)cc(O)c3c2=O)[C@H](OC(=O)CCCCc2ccc(F)cc2)[C@@H](O)[C@H]1O [Compound 14k, 2-(3′,4′-Dihydroxyphenyl)-5,7-dihydroxy-3-β-D-{2″,6″-di-O-[3′″-(4-fluorophenylpentanoyl)]}galactosyl-4H-chromen-4-one]
- IC50 [1, 13]: 4050 nM
- IC50 [2]: > 12000 nM
- MIC S. Pneumoniae R6 [3]: 8 µg/mL (≈ 9.75 µM)
- MIC (Gram-nagative) K-12 (Escherichia coli K-12): >128 µg/mL
- MIC (Gram-nagative) PAO1 [4]: >128 µg/mL
- IC50 (E. coli DNA gyrase; [14]): 5020 nM
- MIC VISA Mu50 [5]: 16 µg/mL (≈ 19.5 µM)
- MIC VRE FN-1 [6]: 16 µg/mL (≈ 19.5 µM)
- MIC VRE NCTC 12201 [7]: 16 µg/mL (≈ 19.5 µM)
- MIC MRSA N315 [8]: 2 µg/mL (≈ 2.44 µM)
- MIC MRSA COL [9]: 16 µg/mL (≈ 19.5 µM)
- MIC MRSA OM584 [10]: 4 µg/mL (≈ 4.87 µM)
- MIC MRSA OM481 [11]: 4 µg/mL (≈ 4.87 µM)
- MIC MSSA 209P [12]: 4 µg/mL (≈ 4.87 µM)

SMILES: O=C(CCCc1ccc(F)cc1)OC[C@H]1O[C@@H](Oc2c(-c3ccc(O)c(O)c3)oc3cc(O)cc(O)c3c2=O)[C@H](OC(=O)CCCc2ccc(F)cc2)[C@@H](O)[C@H]1O [Compound 14j, 2-(3′,4′-Dihydroxyphenyl)-5,7-dihydroxy-3-β-D-{2″,6″-di-O-[3′″-(4-fluorophenylbutanoyl)]}galactosyl-4H-chromen-4-one]
- IC50 [1, 13]: 2940 nM
- IC50 [2]: 8960 nM
- MIC S. Pneumoniae R6 [3]: 2 µg/mL (≈ 2.52 µM)
- MIC (Gram-nagative) K-12 (Escherichia coli K-12): >128 µg/mL
- MIC (Gram-nagative) PAO1 [4]: >128 µg/mL
- IC50 (E. coli DNA gyrase; [14]): 2980 nM
- MIC VISA Mu50 [5]: 4 µg/mL (≈ 5.05 µM)
- MIC VRE FN-1 [6]: 8 µg/mL (≈ 10.1 µM)
- MIC VRE NCTC 12201 [7]: 8 µg/mL (≈ 10.1 µM)
- MIC MRSA N315 [8]: 4 µg/mL (≈ 5.05 µM)
- MIC MRSA COL [9]: 16 µg/mL (≈ 20.2 µM)
- MIC MRSA OM584 [10]: 2 µg/mL (≈ 2.52 µM)
- MIC MRSA OM481 [11]: 2 µg/mL (≈ 2.52 µM)
- MIC MSSA 209P [12]: 4 µg/mL (≈ 5.05 µM)

SMILES: O=C(CCc1ccc(F)cc1)OC[C@H]1O[C@@H](Oc2c(-c3ccc(O)c(O)c3)oc3cc(O)cc(O)c3c2=O)[C@H](OC(=O)CCc2ccc(F)cc2)[C@@H](O)[C@H]1O [Compound 14m, 2-(3′,4′-Dihydroxyphenyl)-5,7-dihydroxy-3-β-D-{2″,6″-di-O-[3′″-(4-fluorophenylpropanoyl)]}galactosyl-4H-chromen-4-one]
- IC50 [1, 13]: 2990 nM
- IC50 [2]: 7520 nM
- MIC S. Pneumoniae R6 [3]: 32 µg/mL (≈ 41.8 µM)
- MIC (Gram-nagative) K-12 (Escherichia coli K-12): >128 µg/mL
- MIC (Gram-nagative) PAO1 [4]: >128 µg/mL
- IC50 (E. coli DNA gyrase; [14]): 1400 nM
- MIC VISA Mu50 [5]: 32 µg/mL (≈ 41.8 µM)
- MIC VRE FN-1 [6]: 16 µg/mL (≈ 20.9 µM)
- MIC VRE NCTC 12201 [7]: 16 µg/mL (≈ 20.9 µM)
- MIC MRSA N315 [8]: 16 µg/mL (≈ 20.9 µM)
- MIC MRSA COL [9]: 32 µg/mL (≈ 41.8 µM)
- MIC MRSA OM584 [10]: 16 µg/mL (≈ 20.9 µM)
- MIC MRSA OM481 [11]: 16 µg/mL (≈ 20.9 µM)
- MIC MSSA 209P [12]: 16 µg/mL (≈ 20.9 µM)
